Results on one molecule are retold here after patent US4433182A, “Insecticidal 2,2'-bridged[1,1'-biphenyl]-3-ylmethyl esters” (FMC Corporation, priority 1981, dated 1984).

Each structure is given as a SMILES string.

Format in all cases: in vivo
Test [1] concerns southern armyworm (Spodoptera eridania). Kind of test: Topical application to southern armyworm larvae. The settings on record: SAW, 24 hours after application. As for the experimental part:
(§1) The activity was evaluated in topical application to southern armyworm (Spodoptera eridania), Mexican bean beetle (Epilachna varivestis), large milkweed bug (Oncopeltus fasciatus), cabbage looper (Trichoplusia ni), and tobacco budworm (Heliothis virescens). Two replicates of 10 test larvae per replicate were placed in 9 cm petri dishes, each lined with a piece of filter paper and a food source. On the second or third dorsal thoracic segment of each larva was placed a 1 microliter droplet containing the desired amount of the test compound in acetone. The toxic effect of the compound was determined 24 hours after application. An insect was considered dead if it could no longer right itself and move in an oriented pattern.

For test [2] the test system is unchanged. Kind of test: Foliar application, southern armyworm mortality. The settings on record: SAW, foliar, 48 hours, read-out: Mortality (% killed). As for the experimental part:
(§2) The compounds were also tested in foliar applications at various concentrations in aqueous solutions containing 10% acetone and 0.25% emulsifier. The plants (English fava bean for pea aphid and pinto bean for the remaining species) were placed on a revolving turntable in a hood, and the test solutions were applied with a sprayer. The test solutions were applied to the upper and lower surfaces of the plant leaves while the turntable revolved 10 times (5 for upper surface and 5 for lower surface). The total spray time was approximately one minute, and the leaves were covered to runoff. In every case the lowest rate was applied first and the highest rate last. The plants were then allowed to dry. The treated leaves were removed and placed in 240 ml or 480 ml wax treated containers. Ten individuals of the appropriate species were placed in each container and the container capped. Mortality was read 48 hours post-treatment unless otherwise noted. Two replicates of ten individuals were made at each rate. Foliar evaluation used southern armyworm (Spodoptera eridania), Mexican bean beetle (Epilachna varivestis), pea aphid (Acyrthosiphon pisum), and twospotted spider mite (Tetranychus urticae).

Test [3] has as its system cabbage looper (Trichoplusia ni). Kind of test: Topical application to cabbage looper. The settings on record: CL, 24 hours after application. The procedure: as §1
The test system of test [4] is Mexican bean beetle (Epilachna varivestis). Kind of test: Foliar application, Mexican bean beetle mortality. The settings on record: MBB, foliar, 48 hours, read-out: Mortality (% killed). As for the experimental part:
as §2

The subject of test [5] is twospotted spider mite (Tetranychus urticae). Kind of test: Foliar application, twospotted spider mite mortality. The conditions noted are these: TSM, foliar, 10 ppm, 48 hours, read-out: Mortality (% killed). As for the experimental part:
as §2

The subject of test [6] is tobacco budworm (Heliothis virescens). Kind of test: Topical application to tobacco budworm. The settings on record: TBW, 24 hours after application. The procedure:
as §1

Test [7] concerns large milkweed bug (Oncopeltus fasciatus). Kind of test: Topical application to large milkweed bug. The settings on record: MWB, 24 hours after application. As for the experimental part: as §1
For test [8], the system named is Mexican bean beetle (Epilachna varivestis). Kind of test: Topical application to Mexican bean beetle. The conditions noted are these: MBB, 24 hours after application. As for the experimental part:
as §1

For test [9], the system named is pea aphid (Acyrthosiphon pisum). Kind of test: Foliar application, pea aphid mortality. The conditions noted are these: PA, foliar, 48 hours, read-out: Mortality (% killed). As for the experimental part:
as §2

On to `CC1(C)[C@H](C=C(Cl)Cl)[C@@H]1C(=O)OCc1cccc2c1CCCc1ccccc1-2` (relative stereo) [Ex. III (cis), (6,7-dihydro-5H-dibenzo[a,c]cyclohepten-4-yl)methyl cis-3-(2,2-dichloroethenyl)-2,2-dimethylcyclopropanecarboxylate], for which the LD50 in [1] came to 96 ng/insect; in test [3] it was 62 ng/insect; in [6] it was 375 ng/insect; in test [7], 104 ng/insect; in test [8], 11 ng/insect. Besides, the mortality at 4.5 ppm in [2] (4.5 ppm) was found to be 5%; in test [4] (4.5 ppm), 55%; in test [9] (4.5 ppm) it was 55%. The mortality at 10 ppm in test [2] (10 ppm) came to 40%; in [4] (10 ppm) it was 85%; in test [5], 13%; in [9] (10 ppm), 90%.
